Measured values from PMC11881906, “Development of xanthone derivatives as effective broad-spectrum antimicrobials: Disrupting cell wall and inhibiting DNA synthesis” (Science Advances, 2025).
Converted amounts (≈) assume the structure as drawn.

Legend:
[1] = tested on: S. aureus ATCC 29213; assay: SYTOX Green uptake assay; format: cell-based, Staphylococcus aureus; conditions: up to 8× MIC
Procedure: The SYTOX Green uptake was measured to explore the inner membrane permeability. The overnight bacteria culture was centrifuged and resuspended in sterile PBS to obtain an OD600 of 0.2. SYTOX Green dye was added to a final concentration of 0.3 μM and incubated for 20 min without being exposed to the light. Fluorescence was measured at excitation and emission wavelengths of 504 and 523 nm, respectively. […] The changes in fluorescence intensity were continuously monitored for 1 hour. All measurements were repeated three times with duplicates each time.

[2] = tested on: K. pneumoniae; assay: MIC, summary over K. pneumoniae strains; format: cell-based; conditions: Klebsiella pneumoniae, two strains; read-out: MICs against K. pneumoniae
Procedure: MIC was determined using the broth microdilution method in accordance with Clinical and Laboratory Standards Institute guidelines. All compounds were dissolved in dimethyl sulfoxide (DMSO; final DMSO concentration of less than 0.5%) and sterile double-distilled water and then diluted with Mueller-Hinton broth (MHB). Each compound’s stock solution was serially twofold diluted, resulting in concentrations ranging from 0.39 to 100 μg/ml, and thereafter added to sterile 96-well plates. All bacterial cell suspensions were adjusted in MHB to attain a starting inoculum of 1 × 10^6 cells/ml. A total of 100 μl volume of the bacterial suspension was then added to each well. Following a 24-hour incubation at 37°C, the optical density at 600 nm (OD600) was confirmed by measuring absorbance at 600 nm with a BioTek microplate reader. […] All measurements were repeated three times with duplicates each time.

[3] = biological target: T1, E. coli DNA gyrase (Escherichia coli, UniProt P0AES4+P0AES6); assay: DNA gyrase supercoiling inhibition assay; format: biochemical
T1 construct: purchased ProFoldin (Worcester, MA)
Procedure: E. coli topoisomerase enzymes (II and IV) were supplied by ProFoldin (Worcester, MA), and assays were performed according to the manufacturer’s instructions. Briefly, the DNA supercoiling assay was conducted in a volume of 40 μl containing 24 μl of H2O, 4 μl of 10× buffer, 4 μl of 10× relaxed DNA, 4 μl of 10× enzyme, and 4 μl of 10 mM adenosine triphosphate (ATP). Following a 60-min incubation at room temperature, 200 μl of H2O was added to each reaction mixture. Topoisomerase IV decatenation inhibition assay was conducted in a volume of 50 μl containing 38.5 μl of H2O, 5 μl of 10× buffer, 5 μl of 10× concatenated DNA, 0.5 μl of 100× enzyme, and 1 μl of 10 mM ATP. After 60 min of incubation at 37°C, 5 μl of 0.4 M EDTA was added to stop the reaction. […]
In the supercoiling inhibition assay, the fluorescence intensity was measured using freshly prepared 1× H19 dye, which was prepared by diluting 100× H19 dye with 10 mM tris-HCl and 10 mM NaCl (pH 7.0). […] In the decatenation inhibition assay, the change in fluorescence intensity was monitored using the 1× fluorescence dye after diluting the 20× dye with water. The reaction solution eluted from the column was mixed with 150 μl of 1× fluorescence dye. The fluorescence intensity for both assays was lastly detected at 535 nm using an excitation wavelength of 485 nm. […]

[4] = tested on: LPS; assay: BODIPY-TR-cadaverine displacement assay; format: binding
Procedure: (§1) The percentage of displacement from LTA-BODIPY/LPS-BODIPY by test compounds was determined according to BODIPY cadaverine displacement assay. […] The mixture was incubated in the dark for 30 min, and then the fluorescence was monitored at an excitation wavelength of 580 nm and an emission wavelength of 620 nm using a BioTek multidetector microplate reader. The percentage of displacement from LTA-BODIPY/LPS-BODIPY was calculated by the following formula: % Displacement = (FS − Fmin)/(Fmax − Fmin) × 100. Where FS is the fluorescence intensity observed at a given test compound concentration, Fmin is the fluorescence intensity of BODIPY with LTA/LPS and DMSO, and Fmax is the fluorescence intensity of BODIPY with only DMSO. All tests were carried out at least twice and with biological replicates.

[5] = tested on: LTA; assay: BODIPY-TR-cadaverine displacement assay; format: binding
Procedure: as §1

T1 sequence (P0AES4 whole entry, one chain of several): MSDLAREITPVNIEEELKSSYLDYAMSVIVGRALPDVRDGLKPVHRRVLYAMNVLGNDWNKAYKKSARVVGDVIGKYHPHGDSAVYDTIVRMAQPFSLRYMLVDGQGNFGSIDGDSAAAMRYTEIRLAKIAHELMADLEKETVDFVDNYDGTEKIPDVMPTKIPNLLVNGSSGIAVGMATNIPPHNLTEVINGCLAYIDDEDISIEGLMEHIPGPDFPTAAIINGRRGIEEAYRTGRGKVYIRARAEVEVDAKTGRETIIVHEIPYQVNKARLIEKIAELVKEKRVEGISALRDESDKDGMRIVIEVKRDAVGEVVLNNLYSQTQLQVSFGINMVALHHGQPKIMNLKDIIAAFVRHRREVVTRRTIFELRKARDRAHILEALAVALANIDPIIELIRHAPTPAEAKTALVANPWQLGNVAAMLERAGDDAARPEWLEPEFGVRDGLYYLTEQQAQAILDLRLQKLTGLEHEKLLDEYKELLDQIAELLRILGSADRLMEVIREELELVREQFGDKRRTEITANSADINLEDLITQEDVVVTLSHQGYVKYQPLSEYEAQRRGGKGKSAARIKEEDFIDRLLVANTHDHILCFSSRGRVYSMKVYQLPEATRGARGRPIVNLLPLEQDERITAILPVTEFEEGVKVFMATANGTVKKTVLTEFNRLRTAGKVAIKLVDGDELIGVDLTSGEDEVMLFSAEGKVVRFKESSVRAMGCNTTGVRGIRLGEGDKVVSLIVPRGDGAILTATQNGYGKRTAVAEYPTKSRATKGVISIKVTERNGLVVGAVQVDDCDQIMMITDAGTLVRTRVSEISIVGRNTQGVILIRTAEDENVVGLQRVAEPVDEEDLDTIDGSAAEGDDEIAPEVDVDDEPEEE

## CC(C)=CCOc1cc(OCCCNC(=N)N)cc2oc3cc(OCCCNC(=N)N)ccc3c(=O)c12 [XT17]
[1]
  SYTOX Green fluorescence intensity (cytoplasmic membrane permeabilization): did not show a notable increase
[2]
  MIC: 6.25 to 12.5 µg/mL (≈ 12.2 to 24.5 µM)
[3]; 1× MIC
  Inhibition of DNA gyrase (%): 81.45 ± 1.33%
[3]; concentration not stated (Discussion)
  inhibitory effect on bacterial DNA gyrase in vitro: ~ 90%
[4]; 1× MIC
  % Displacement from LPS: 39.22%
[4]; 2× MIC
  % Displacement from LPS: 52.67%
[4]; 4× MIC
  % Displacement from LPS: 69.53%
[4]; 8× MIC
  % Displacement from LPS: 75.50%
[5]; 1× MIC
  % Displacement from LTA: 2.86%
[5]; 2× MIC
  % Displacement from LTA: 14.81%
[5]; 4× MIC
  % Displacement from LTA: 17.88%
[5]; 8× MIC
  % Displacement from LTA: 32.95%
